In US5968952A, “Farnesyl transferase inhibiting 2-quinolone derivatives” (Janssen Pharmaceutica, N.V., priority 1995, dated 1999):

What was measured:
[1] = tested on: NIH 3T3 cells transformed by the T24 activated human H-ras gene; experiment: Ras-Transformed Cell Phenotype Reversion Assay; assay type: cell-based, mouse; conditions: NIH3T3; Table 8; T24 H-ras transformed NIH 3T3 cells; 72 hours; cell counts
From the text: "Ras-Transformed Cell Phenotype Reversion Assay" Insertion of activated oncogenes such as the mutant ras gene into mouse NIH 3T3 cells converts the cells to a transformed phenotype. The cells become tumorigenic, display anchorage independent growth in semi-solid medium and lose contact inhibition. Loss of contact inhibition produces cell cultures which no longer form uniform monolayers. Rather, the cells pile up into multicellular nodules and grow to very high saturation densities in plastic tissue culture dishes. Agents such as protein farnesyl transferase inhibitors which revert the ras transformed phenotype restore the uniform monolayer growth pattern to cells in culture. This reversion is easily monitored by counting the number of cells in tissue culture plates. Transformed cells will achieve higher cell numbers than cells which have reverted to an untransformed phenotype. Compounds which revert the transformed phenotype should produce antitumor effects in tumors bearing ras gene mutations. Method Compounds are screened in tissue culture in NIH 3T3 cells transformed by the T24 activated human H-ras gene. Cells are seeded at an initial density of 200,000 cells per well (9.6 cm^2 surface area) in six-well cluster tissue culture plates. Test compounds are immediately added to 3.0 ml cell growth mediuim in a 3.0 μl volume of DMSO, with a final concentration of DMSO in the cell growth medium of 0.1%. […] Then the cells are detached in 1.0 ml trypsin-EDTA cell dissociation medium and counted on a Coulter particle counter. Measurements Cell numbers expressed as cells per well are measured using a Coulter Particle Counter. All cell counts were corrected for the initial cell input density by subtracting 200,000. Control cell counts=[cell counts from cells incubated with DMSO vehicle--200,000] Test compound cell counts=[cell counts from cells incubated with test compound--200,000]. [formula]

[2] = target: T1, Human farnesyl protein transferase (Homo sapiens, UniProt P49354+P49356); experiment: In Vitro Assay for Inhibition of Farnesyl Protein Transferase ([3H] Scintillation Proximity Assay); assay type: biochemical; conditions: Table 7; human enzyme from KHOS cells; biotinylated lamin B peptide substrate; 60 min, 37° C.; read-out: IC50 (concentration of test compound producing 50% inhibition of enzyme activity)
T1 construct: were used as a source of human enzyme; endogenous in cells; host or cells: Kirsten virus transformed human osteosarcoma (KHOS) cells (ATCC), grown as monolayers or as solid tumors in nude mice; ammonium sulfate fraction and Q Sepharose pool
Procedure: In Vitro Assay for Inhibition of Farnesyl Protein Transferase Human farnesyl protein transferase was prepared essentially as described ([…] al., Methods: A Companion to Methods in Enzymology vol 1, 241-245, 1990). Kirsten virus transformed human osteosarcoma (KHOS) cells (American Type Culture Collection, Rockvill, Md., USA) grown as solid tumors in nude mice or grown as monolayer cell cultures were used as a source of human enzyme. Briefly, cells or tumors were homogenized in buffer containing 50 mM Tris, 1 mM EDTA, 1 mM EGTA and 0.2 mM phenylmethylsulfonylfluoride (pH 7.5). The homogenates were centrifuged 28,000× g for 60 min and the supernatants collected. A 30-50% ammonium sulfate […] prepared, and the resulting precipitate was resuspended in a small (10 to 20 ml) volume of dialysis buffer containing 20 mM Tris, 1 mM dithiothreitol and 20 μM ZnCl2. The ammonium sulfate fraction was dialyzed overnight against two changes of the same buffer. The dialyzed material was applied to a 10×1 cm Q Fast Flow Sepharose (Pharmacia LKB Biotechnology Inc., Piscataway, N.J., USA) which had been preequilibrated with 100 ml of dialysis buffer supplemented with 0.05M NaCl. The column was washed with an additional 50 ml of dialysis buffer plus 0.05M NaCl followed by a gradient from 0.05M to 0.25M NaCl prepared in dialysis buffer. The enzyme activity was eluted with a linear gradient of 0.25 to 1.0M NaCl prepared in the dialysis buffer. Fractions containing 4 to 5 ml volumes of column eluate were collected and analyzed for farnesyl protein transferase activity. Fractions with enzyme activity were pooled and supplemented with 100 μM ZnCl2. Enzyme samples were stored frozen at -70° C. The activity of farnesyl protein transferase was measured using the Farnesyl Transferase [^3 H] Scintillation Proximity Assay (Amersham International plc., England) under the conditions specified by the manufacturer. […] The reaction mixture was warmed to 37° C. The enzyme reaction was started by adding 20 μl of diluted human farnesyl protein transferase. […] Reactions were terminated by the addition of STOP/scintillation proximity bead reagent (Amersham). The reaction product [^3 H]-farnesyl-(Cys)-biotin lamin B peptide was captured on the streptavidin linked scintillation proximity bead. The amount of [^3 H]-farnesyl-(Cys)-biotin lamin B peptide synthesized in the presence or absence of test compounds was quantified as cpm by counting on a Wallac Model 1480 Microbeta Liquid Scintillation Counter. The cpm of product was considered to be farnesyl protein transferase activity. The protein farnesyl transferase activity observed in the presence of test compound was normalized to farnesyl transferase activity in the presence of 10% DMSO and expressed as per cent inhibition. […] W. Johnson Pharmaceutical Research Institue (Spring House, Pa., USA) on a VAX computer.

SMILES | IC50 [2] | IC50 [1]
CCCOc1cccc(-c2cc(=O)n(C)c3ccc(C(c4ccc(Cl)cc4)n4ccnc4)cc23)c1 (racemic) [Compound 74, (±)-6-[(4-chlorophenyl)-1H-imidazol-1-ylmethyl]-1-methyl-4-(3-propoxyphenyl)-2(1H)-quinolinone ethanedioate (2:3).sesquihydrate] |  | 500 nM
O=c1cc(-c2cccc(Cl)c2)c2cc(C(c3ccc(Cl)cc3)n3ccnc3)ccc2[nH]1 (single isomer, unassigned) [Compound 23] | 15 nM | 204 nM
COCC(c1ccc(Cl)cc1)(c1ccc2c(c1)c(-c1cccc(Cl)c1)cc(=O)n2C)n1ccnc1 (centres unmarked) [Compound 67] |  | 114 nM
CSCC(c1ccc(Cl)cc1)(c1ccc2c(c1)c(-c1cccc(Cl)c1)cc(=O)n2C)n1ccnc1 (centres unmarked) [Compound 69] |  | 500 nM
CN(C)CCn1c(=O)cc(-c2cccc(Cl)c2)c2cc(C(c3ccc(Cl)cc3)n3ccnc3)ccc21 (centres unmarked) [Compound 80] |  | 169 nM
Cc1cc(C(c2ccc(Cl)cc2)n2ccnc2)cc2c(-c3cccc(Cl)c3)cc(=O)n(C)c12 (centres unmarked) [Compound 89] |  | 445 nM

Continued, in another order:

IC50 [2] | SMILES | IC50 [1]
30 nM | CCC(c1ccc(Cl)cc1)(c1ccc2c(c1)c(-c1cccc(Cl)c1)cc(=O)n2C)n1ccnc1 (centres unmarked) [Compound 63] | 294 nM
11 nM | Cc1cncn1C(C)(c1ccc(Cl)cc1)c1ccc2c(c1)c(-c1cccc(Cl)c1)cc(=O)n2C (centres unmarked) [Compound 64, 4-(3-chlorophenyl)-6-[1-(4-chlorophenyl)-1-(5-methyl-1H-imidazol-1-yl)ethyl]-1-methyl-2(1H)-quinolinone] | 133 nM
5.6 nM | Cn1c(=O)cc(-c2cccc(Cl)c2)c2cc(C(CO)(c3ccc(Cl)cc3)n3ccnc3)ccc21 (centres unmarked) [Compound 66] | 53 nM
7.2 nM | COCCn1c(=O)cc(-c2cccc(Cl)c2)c2cc(C(c3ccc(Cl)cc3)n3ccnc3)ccc21 (centres unmarked) [Compound 77, 4-(3-chlorophenyl)-6-[(4-chlorophenyl)(1H-imidazol-1-yl)methyl]-1-(2-methoxyethyl)-2(1H)-quinolinone ethanedioate (2:3) monohydrate] | 189 nM
3.4 nM | Cn1c(=O)cc(-c2ccc3c(c2)OCO3)c2cc(C(c3ccc(Cl)cc3)n3ccnc3)ccc21 (centres unmarked) [Compound 83, 6-[(4-chlorophenyl)(1H-imidazol-1-yl)methyl]-4-(1,3-benzodioxol-5-yl)-1-methyl-2(1H)-quinolinone ethanedioate (1:1)] | 68 nM
